Laboratory results from the kinase profiling compilation of Christmann-Franck et al. (2016).

Key:
Experiment in all cases: radiometric filter-binding kinase assay, Kinase HotSpot
Details in all cases: compound 0.5 µM; ATP 10 µM
NEK11 (human) = NEK11 (human) (UniProt Q8NG66)
MAP3K9 (human) = MAP3K9 (human) (UniProt P80192)
AURKA (human) = AURKA (human) (UniProt O14965)
WEE1 (human) = WEE1 (human) (UniProt P30291)
TEC (human) = TEC (human) (UniProt P42680)
NEK4 (human) = NEK4 (human) (UniProt P51957)
[1] = target: JAK1 JH1 catalytic (human) (UniProt P23458)
PDGFRA (human) = PDGFRA (human) (UniProt P16234)
GRK5 (human) = GRK5 (human) (UniProt P34947)
TNK2 (human) = TNK2 (human) (UniProt Q07912)
CAMK4 (human) = CAMK4 (human) (UniProt Q16566)
CDK5 CDK5R1 p35 (human) = CDK5 CDK5R1 p35 (human) (UniProt Q00535+Q15078)
MAPKAPK5 (human) = MAPKAPK5 (human) (UniProt Q8IW41)
PKN1 (human) = PKN1 (human) (UniProt Q16512)
EPHB4 (human) = EPHB4 (human) (UniProt P54760)
BTK (human) = BTK (human) (UniProt Q06187)
MATK (human) = MATK (human) (UniProt P42679)
DAPK3 (human) = DAPK3 (human) (UniProt O43293)
[2] = target: TYK2 JH1 catalytic (human) (UniProt P29597)
YES1 (human) = YES1 (human) (UniProt P07947)
NEK9 (human) = NEK9 (human) (UniProt Q8TD19)
HIPK1 (human) = HIPK1 (human) (UniProt Q86Z02)
VRK1 (human) = VRK1 (human) (UniProt Q99986)
PAK2 (human) = PAK2 (human) (UniProt Q13177)
CSK (human) = CSK (human) (UniProt P41240)
PRKG2 (human) = PRKG2 (human) (UniProt Q13237)
INSRR (human) = INSRR (human) (UniProt P14616)
GSG2 (human) = GSG2 (human) (UniProt Q8TF76)
CHUK (human) = CHUK (human) (UniProt O15111)
PRKCE (human) = PRKCE (human) (UniProt Q02156)
SIK2 (human) = SIK2 (human) (UniProt Q9H0K1)
NEK6 (human) = NEK6 (human) (UniProt Q9HC98)
SRPK1 (human) = SRPK1 (human) (UniProt Q96SB4)
RPS6KA5 KD2 (human) = RPS6KA5 KD2 (human) (UniProt O75582)
PDGFRB (human) = PDGFRB (human) (UniProt P09619)
NEK3 (human) = NEK3 (human) (UniProt P51956)
TSSK2 (human) = TSSK2 (human) (UniProt Q96PF2)
MAPK11 (human) = MAPK11 (human) (UniProt Q15759)
ADRBK2 (human) = ADRBK2 (human) (UniProt P35626)
ITK (human) = ITK (human) (UniProt Q08881)
MAPK1 (human) = MAPK1 (human) (UniProt P28482)
MAP2K2 (human) = MAP2K2 (human) (UniProt P36507)

Chain of MAPK1 (human) (P28482 whole entry, looked up): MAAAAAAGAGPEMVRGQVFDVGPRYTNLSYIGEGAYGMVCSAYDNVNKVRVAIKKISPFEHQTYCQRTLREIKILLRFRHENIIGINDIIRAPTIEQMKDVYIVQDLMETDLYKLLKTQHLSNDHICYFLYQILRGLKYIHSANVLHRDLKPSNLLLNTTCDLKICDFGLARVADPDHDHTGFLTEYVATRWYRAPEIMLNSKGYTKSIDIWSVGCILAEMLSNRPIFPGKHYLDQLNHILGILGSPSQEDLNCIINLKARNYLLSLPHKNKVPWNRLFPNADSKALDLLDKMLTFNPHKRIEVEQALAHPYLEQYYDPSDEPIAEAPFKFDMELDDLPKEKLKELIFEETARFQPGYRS
Chain of JAK1 JH1 catalytic (human) (P23458 whole entry, looked up): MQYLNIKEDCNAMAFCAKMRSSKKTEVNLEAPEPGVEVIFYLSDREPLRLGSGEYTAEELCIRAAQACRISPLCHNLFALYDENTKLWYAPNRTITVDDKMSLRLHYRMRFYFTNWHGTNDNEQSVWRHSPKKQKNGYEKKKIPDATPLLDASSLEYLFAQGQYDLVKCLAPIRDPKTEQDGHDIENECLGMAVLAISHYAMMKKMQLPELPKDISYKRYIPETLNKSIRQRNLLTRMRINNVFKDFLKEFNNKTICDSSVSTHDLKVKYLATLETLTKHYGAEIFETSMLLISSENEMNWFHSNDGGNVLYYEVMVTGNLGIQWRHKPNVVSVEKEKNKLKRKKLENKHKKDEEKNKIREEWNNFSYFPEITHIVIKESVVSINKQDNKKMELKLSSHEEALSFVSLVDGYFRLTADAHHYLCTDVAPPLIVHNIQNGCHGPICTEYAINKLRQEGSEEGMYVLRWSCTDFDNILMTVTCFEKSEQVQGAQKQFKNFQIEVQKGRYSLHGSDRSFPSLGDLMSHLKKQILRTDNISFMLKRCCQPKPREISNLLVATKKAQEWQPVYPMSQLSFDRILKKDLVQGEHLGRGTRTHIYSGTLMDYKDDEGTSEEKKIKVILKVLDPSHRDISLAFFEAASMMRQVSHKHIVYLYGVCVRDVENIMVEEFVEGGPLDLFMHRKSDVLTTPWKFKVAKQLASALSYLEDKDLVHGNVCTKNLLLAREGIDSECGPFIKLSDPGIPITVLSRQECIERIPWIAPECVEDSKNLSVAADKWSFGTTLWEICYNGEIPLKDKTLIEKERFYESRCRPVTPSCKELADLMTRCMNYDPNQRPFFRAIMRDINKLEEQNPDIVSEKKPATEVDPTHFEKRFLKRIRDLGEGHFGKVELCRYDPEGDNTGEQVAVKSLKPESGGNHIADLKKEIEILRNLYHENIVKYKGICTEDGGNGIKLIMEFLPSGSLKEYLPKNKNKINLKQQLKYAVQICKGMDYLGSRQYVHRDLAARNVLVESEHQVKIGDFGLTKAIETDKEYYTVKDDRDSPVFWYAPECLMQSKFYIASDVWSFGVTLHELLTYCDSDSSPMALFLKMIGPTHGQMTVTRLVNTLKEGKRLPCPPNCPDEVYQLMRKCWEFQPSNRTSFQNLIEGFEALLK
Chain of MAPK11 (human) (Q15759 whole entry, looked up): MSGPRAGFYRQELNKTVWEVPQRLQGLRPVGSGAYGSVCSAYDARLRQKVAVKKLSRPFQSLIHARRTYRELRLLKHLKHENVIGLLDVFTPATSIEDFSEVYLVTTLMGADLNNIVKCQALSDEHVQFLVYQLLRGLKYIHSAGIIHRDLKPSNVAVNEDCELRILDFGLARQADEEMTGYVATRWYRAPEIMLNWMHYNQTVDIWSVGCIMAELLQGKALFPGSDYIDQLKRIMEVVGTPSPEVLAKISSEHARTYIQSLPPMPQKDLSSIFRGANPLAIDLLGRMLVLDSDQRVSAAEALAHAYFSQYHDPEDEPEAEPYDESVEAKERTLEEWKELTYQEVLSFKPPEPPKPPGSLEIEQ
Chain of NEK11 (human) (Q8NG66 whole entry, looked up): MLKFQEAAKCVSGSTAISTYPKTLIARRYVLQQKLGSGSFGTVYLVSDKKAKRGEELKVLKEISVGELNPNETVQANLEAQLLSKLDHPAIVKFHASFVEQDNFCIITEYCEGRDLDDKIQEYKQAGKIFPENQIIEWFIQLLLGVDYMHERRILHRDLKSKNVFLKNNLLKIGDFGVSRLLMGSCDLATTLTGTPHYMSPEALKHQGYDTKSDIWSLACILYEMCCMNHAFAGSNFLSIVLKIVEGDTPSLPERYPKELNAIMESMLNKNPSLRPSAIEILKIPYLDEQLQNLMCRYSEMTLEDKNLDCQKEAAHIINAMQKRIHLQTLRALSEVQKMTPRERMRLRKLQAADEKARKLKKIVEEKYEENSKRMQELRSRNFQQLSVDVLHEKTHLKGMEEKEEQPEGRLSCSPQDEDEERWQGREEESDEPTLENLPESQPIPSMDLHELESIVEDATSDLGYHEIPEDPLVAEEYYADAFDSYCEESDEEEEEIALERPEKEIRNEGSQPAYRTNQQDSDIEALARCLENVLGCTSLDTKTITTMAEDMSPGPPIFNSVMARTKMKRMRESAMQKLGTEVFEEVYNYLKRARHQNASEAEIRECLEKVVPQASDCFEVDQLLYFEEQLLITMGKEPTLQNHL
Chain of YES1 (human) (P07947 whole entry, looked up): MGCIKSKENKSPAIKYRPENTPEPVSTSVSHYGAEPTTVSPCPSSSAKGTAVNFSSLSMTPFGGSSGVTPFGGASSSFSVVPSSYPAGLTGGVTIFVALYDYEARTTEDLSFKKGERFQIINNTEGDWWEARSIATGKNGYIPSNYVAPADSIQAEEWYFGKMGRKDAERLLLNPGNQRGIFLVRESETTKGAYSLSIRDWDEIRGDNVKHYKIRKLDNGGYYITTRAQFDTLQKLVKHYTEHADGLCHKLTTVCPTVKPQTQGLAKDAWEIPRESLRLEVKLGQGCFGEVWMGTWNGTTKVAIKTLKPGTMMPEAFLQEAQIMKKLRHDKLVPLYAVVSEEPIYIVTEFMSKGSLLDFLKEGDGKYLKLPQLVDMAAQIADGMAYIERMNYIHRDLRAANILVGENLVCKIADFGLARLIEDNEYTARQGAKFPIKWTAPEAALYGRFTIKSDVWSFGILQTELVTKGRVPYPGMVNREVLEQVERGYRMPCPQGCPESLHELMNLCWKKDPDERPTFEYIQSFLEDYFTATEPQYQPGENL
Chain of PKN1 (human) (Q16512 whole entry, looked up): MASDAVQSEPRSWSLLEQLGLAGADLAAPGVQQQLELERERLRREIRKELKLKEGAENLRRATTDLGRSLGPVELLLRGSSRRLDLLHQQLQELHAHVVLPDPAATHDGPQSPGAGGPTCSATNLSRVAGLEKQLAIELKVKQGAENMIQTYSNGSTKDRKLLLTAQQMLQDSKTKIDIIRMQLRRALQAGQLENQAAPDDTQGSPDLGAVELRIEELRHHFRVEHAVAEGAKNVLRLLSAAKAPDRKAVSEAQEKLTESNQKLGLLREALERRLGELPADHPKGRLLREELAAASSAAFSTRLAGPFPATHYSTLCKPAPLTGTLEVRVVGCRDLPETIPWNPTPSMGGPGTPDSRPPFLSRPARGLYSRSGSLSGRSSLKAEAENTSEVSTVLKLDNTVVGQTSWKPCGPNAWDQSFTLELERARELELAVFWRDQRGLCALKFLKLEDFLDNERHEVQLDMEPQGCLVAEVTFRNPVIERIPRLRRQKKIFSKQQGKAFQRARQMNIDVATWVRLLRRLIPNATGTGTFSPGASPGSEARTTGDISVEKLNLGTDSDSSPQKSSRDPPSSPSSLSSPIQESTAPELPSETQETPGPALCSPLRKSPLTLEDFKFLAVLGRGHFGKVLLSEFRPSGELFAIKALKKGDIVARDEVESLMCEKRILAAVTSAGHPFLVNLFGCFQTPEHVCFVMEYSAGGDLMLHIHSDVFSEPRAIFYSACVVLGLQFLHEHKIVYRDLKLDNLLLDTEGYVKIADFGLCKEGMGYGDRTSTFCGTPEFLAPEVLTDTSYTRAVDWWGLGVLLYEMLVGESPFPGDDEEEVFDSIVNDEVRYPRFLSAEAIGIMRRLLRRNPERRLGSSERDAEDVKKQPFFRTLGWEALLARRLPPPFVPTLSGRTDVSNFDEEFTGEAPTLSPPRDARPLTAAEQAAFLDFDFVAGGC
Chain of NEK9 (human) (Q8TD19 whole entry, looked up): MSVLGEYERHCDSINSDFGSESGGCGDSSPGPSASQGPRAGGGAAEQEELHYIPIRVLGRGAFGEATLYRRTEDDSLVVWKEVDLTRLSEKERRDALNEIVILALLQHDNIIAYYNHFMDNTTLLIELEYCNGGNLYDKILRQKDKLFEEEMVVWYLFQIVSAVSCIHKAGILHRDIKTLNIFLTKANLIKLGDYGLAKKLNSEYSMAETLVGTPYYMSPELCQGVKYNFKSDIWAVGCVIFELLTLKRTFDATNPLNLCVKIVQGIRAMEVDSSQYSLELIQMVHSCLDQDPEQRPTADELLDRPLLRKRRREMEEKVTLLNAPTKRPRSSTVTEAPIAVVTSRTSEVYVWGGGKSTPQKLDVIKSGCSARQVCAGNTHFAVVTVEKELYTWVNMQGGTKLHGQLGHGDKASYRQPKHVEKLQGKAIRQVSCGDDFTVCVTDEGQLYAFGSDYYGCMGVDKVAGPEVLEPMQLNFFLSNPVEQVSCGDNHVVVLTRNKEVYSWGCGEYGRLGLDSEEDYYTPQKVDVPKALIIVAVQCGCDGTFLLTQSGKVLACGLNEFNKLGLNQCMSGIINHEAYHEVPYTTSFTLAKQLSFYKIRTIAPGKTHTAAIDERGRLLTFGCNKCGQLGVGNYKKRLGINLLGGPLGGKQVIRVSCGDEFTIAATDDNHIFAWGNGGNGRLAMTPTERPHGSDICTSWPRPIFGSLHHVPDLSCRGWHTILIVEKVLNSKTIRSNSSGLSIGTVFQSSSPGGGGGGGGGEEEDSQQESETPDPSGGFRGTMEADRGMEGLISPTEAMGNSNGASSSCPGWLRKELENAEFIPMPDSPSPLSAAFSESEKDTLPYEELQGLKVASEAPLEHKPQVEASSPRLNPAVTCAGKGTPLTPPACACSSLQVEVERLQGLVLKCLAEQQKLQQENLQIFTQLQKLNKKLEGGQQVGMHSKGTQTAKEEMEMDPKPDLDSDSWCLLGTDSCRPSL

Structure (SMILES): O=C1Nc2ccccc2/C1=C1/Nc2ccccc2/C1=N\OCCC(O)CO (stereo not drawn)
- residual activity (NEK11 (human)): 92.3%
- residual activity (MAP3K9 (human)): 7.06%
- residual activity (AURKA (human)): 9.78%
- residual activity (WEE1 (human)): 82%
- residual activity (TEC (human)): 101%
- residual activity (NEK4 (human)): 83.9%
- residual activity [1]: 25.9%
- residual activity (PDGFRA (human)): 76.7%
- residual activity (GRK5 (human)): 84.6%
- residual activity (TNK2 (human)): 4.93%
- residual activity (CAMK4 (human)): 93.6%
- residual activity (CDK5 CDK5R1 p35 (human)): 14.3%
- residual activity (MAPKAPK5 (human)): 86.8%
- residual activity (PKN1 (human)): 49.9%
- residual activity (EPHB4 (human)): 72.2%
- residual activity (BTK (human)): 24.1%
- residual activity (MATK (human)): 101%
- residual activity (DAPK3 (human)): 66.6%
- residual activity [2]: 9.42%
- residual activity (YES1 (human)): 13.4%
- residual activity (NEK9 (human)): 73.6%
- residual activity (HIPK1 (human)): 96%
- residual activity (VRK1 (human)): 88.3%
- residual activity (PAK2 (human)): 82.1%
- residual activity (CSK (human)): 86.3%
- residual activity (PRKG2 (human)): 28.1%
- residual activity (INSRR (human)): 2.77%
- residual activity (GSG2 (human)): 32.8%
- residual activity (CHUK (human)): 96.6%
- residual activity (PRKCE (human)): 92.2%
- residual activity (SIK2 (human)): 75.1%
- residual activity (NEK6 (human)): 96.3%
- residual activity (SRPK1 (human)): 71.3%
- residual activity (RPS6KA5 KD2 (human)): 37.5%
- residual activity (PDGFRB (human)): 42.8%
- residual activity (NEK3 (human)): 102%
- residual activity (TSSK2 (human)): 96.2%
- residual activity (MAPK11 (human)): 95.2%
- residual activity (ADRBK2 (human)): 100%
- residual activity (ITK (human)): 34.8%
- residual activity (MAPK1 (human)): 89.8%
- residual activity (MAP2K2 (human)): 86.5%

Structure (SMILES): O=C1NC(=O)C(c2c[nH]c3ccccc23)=C1c1c[nH]c2ccccc12
- residual activity (NEK11 (human)): 108%
- residual activity (MAP3K9 (human)): 55.4%
- residual activity (AURKA (human)): 108%
- residual activity (WEE1 (human)): 98.1%
- residual activity (TEC (human)): 145%
- residual activity (NEK4 (human)): 96.4%
- residual activity [1]: 101%
- residual activity (PDGFRA (human)): 90.6%
- residual activity (GRK5 (human)): 98.1%
- residual activity (TNK2 (human)): 94.9%
- residual activity (CAMK4 (human)): 100%
- residual activity (CDK5 CDK5R1 p35 (human)): 79.5%
- residual activity (MAPKAPK5 (human)): 119%
- residual activity (PKN1 (human)): 84.6%
- residual activity (EPHB4 (human)): 88.5%
- residual activity (BTK (human)): 98.2%
- residual activity (MATK (human)): 91.1%
- residual activity (DAPK3 (human)): 104%
- residual activity [2]: 109%
- residual activity (YES1 (human)): 88.4%
- residual activity (NEK9 (human)): 97.3%
- residual activity (HIPK1 (human)): 102%
- residual activity (VRK1 (human)): 109%
- residual activity (PAK2 (human)): 97%
- residual activity (CSK (human)): 103%
- residual activity (PRKG2 (human)): 52.6%
- residual activity (INSRR (human)): 90.1%
- residual activity (GSG2 (human)): 84.7%
- residual activity (CHUK (human)): 93.4%
- residual activity (PRKCE (human)): 24%
- residual activity (SIK2 (human)): 102%
- residual activity (NEK6 (human)): 101%
- residual activity (SRPK1 (human)): 89.4%
- residual activity (RPS6KA5 KD2 (human)): 62%
- residual activity (PDGFRB (human)): 95.6%
- residual activity (NEK3 (human)): 88.2%
- residual activity (TSSK2 (human)): 110%
- residual activity (MAPK11 (human)): 89%
- residual activity (ADRBK2 (human)): 87%
- residual activity (ITK (human)): 102%
- residual activity (MAPK1 (human)): 90.5%
- residual activity (MAP2K2 (human)): 82.7%

Structure (SMILES): COc1ccc(CNC(=O)Nc2ncc([N+](=O)[O-])s2)cc1
- residual activity (NEK11 (human)): 104%
- residual activity (MAP3K9 (human)): 101%
- residual activity (AURKA (human)): 97.4%
- residual activity (WEE1 (human)): 95.2%
- residual activity (TEC (human)): 97.7%
- residual activity (NEK4 (human)): 91%
- residual activity [1]: 94.2%
- residual activity (PDGFRA (human)): 93%
- residual activity (GRK5 (human)): 104%
- residual activity (TNK2 (human)): 96.8%
- residual activity (CAMK4 (human)): 96.7%
- residual activity (CDK5 CDK5R1 p35 (human)): 96.4%
- residual activity (MAPKAPK5 (human)): 90.1%
- residual activity (PKN1 (human)): 94.3%
- residual activity (EPHB4 (human)): 100%
- residual activity (BTK (human)): 102%
- residual activity (MATK (human)): 96.6%
- residual activity (DAPK3 (human)): 106%
- residual activity [2]: 108%
- residual activity (YES1 (human)): 96.1%
- residual activity (NEK9 (human)): 89.4%
- residual activity (HIPK1 (human)): 100%
- residual activity (VRK1 (human)): 95%
- residual activity (PAK2 (human)): 102%
- residual activity (CSK (human)): 102%
- residual activity (PRKG2 (human)): 100%
- residual activity (INSRR (human)): 99.2%
- residual activity (GSG2 (human)): 90%
- residual activity (CHUK (human)): 97.1%
- residual activity (PRKCE (human)): 92.4%
- residual activity (SIK2 (human)): 89.4%
- residual activity (NEK6 (human)): 100%
- residual activity (SRPK1 (human)): 92.9%
- residual activity (RPS6KA5 KD2 (human)): 99.5%
- residual activity (PDGFRB (human)): 125%
- residual activity (NEK3 (human)): 78.6%
- residual activity (TSSK2 (human)): 105%
- residual activity (MAPK11 (human)): 95.4%
- residual activity (ADRBK2 (human)): 112%
- residual activity (ITK (human)): 89.5%
- residual activity (MAPK1 (human)): 104%
- residual activity (MAP2K2 (human)): 73.5%

Structure (SMILES): CN(C)C[C@H]1CCn2c(c(C3=C(c4cn(C)c5ccccc45)C(=O)NC3=O)c3ccccc32)C1
- residual activity (NEK11 (human)): 74.1%
- residual activity (MAP3K9 (human)): 90.8%
- residual activity (AURKA (human)): 87.7%
- residual activity (WEE1 (human)): 101%
- residual activity (TEC (human)): 108%
- residual activity (NEK4 (human)): 96.7%
- residual activity [1]: 108%
- residual activity (PDGFRA (human)): 93.1%
- residual activity (GRK5 (human)): 56.2%
- residual activity (TNK2 (human)): 96.3%
- residual activity (CAMK4 (human)): 95.5%
- residual activity (CDK5 CDK5R1 p35 (human)): 85.4%
- residual activity (MAPKAPK5 (human)): 95.4%
- residual activity (PKN1 (human)): 7.06%
- residual activity (EPHB4 (human)): 90.9%
- residual activity (BTK (human)): 103%
- residual activity (MATK (human)): 95%
- residual activity (DAPK3 (human)): 95.2%
- residual activity [2]: 104%
- residual activity (YES1 (human)): 95.3%
- residual activity (NEK9 (human)): 97.6%
- residual activity (HIPK1 (human)): 101%
- residual activity (VRK1 (human)): 105%
- residual activity (PAK2 (human)): 85.1%
- residual activity (CSK (human)): 104%
- residual activity (PRKG2 (human)): 90.7%
- residual activity (INSRR (human)): 98.7%
- residual activity (GSG2 (human)): 100%
- residual activity (CHUK (human)): 103%
- residual activity (PRKCE (human)): 2.73%
- residual activity (SIK2 (human)): 88.8%
- residual activity (NEK6 (human)): 94.6%
- residual activity (SRPK1 (human)): 103%
- residual activity (RPS6KA5 KD2 (human)): 24.8%
- residual activity (PDGFRB (human)): 102%
- residual activity (NEK3 (human)): 99.4%
- residual activity (TSSK2 (human)): 97.1%
- residual activity (MAPK11 (human)): 109%
- residual activity (ADRBK2 (human)): 102%
- residual activity (ITK (human)): 94.9%
- residual activity (MAPK1 (human)): 101%
- residual activity (MAP2K2 (human)): 101%
